From patent US20200239398A1, “METHYLENE-CYCLOALKYLACETATE DERIVATIVES AND THEIR USE IN TREATMENT OF NEUROTROPIC CONDITIONS” (Yissum Research Development Company of The Hebrew …, priority 2018, published 2020)

Experiments:
PC12 cells [1] = assay: PC12 cell neurotropic assay (neurite outgrowth); format: cell-based, rat; conditions: 10 μM; for Neurotropic effect (mean ± SE) Seven Days Df / Neurotropic effect (mean ± SE) Two Days Df: PC12 cells, Df = fractal dimension of neurite outgrowth; for Neurotropic effect (mean ± SE) Seven Days Df: seven days of treatment; for Neurotropic effect (mean ± SE) Two Days Df: two days of treatment; for Neurotropic effect Seven Days NGF (%) / Neurotropic effect Two Days NGF (%): relative to NGF 50 ng/ml; for inducing fast neurite outgrowth (in words): after two days of treatment
Protocol: PC12 cells were grown in T-200 flasks in high glucose (4.5 gr/L) DMEM medium supplemented with 7% FCS, 7% horse serum and 1% penicillin and streptomycin. Cells were incubated at 37° C. in a humidified incubator containing 6% CO2. All experiments were carried out in a clean room, according to ISO7 requirements (10,000 particles/m^3).
Tissue culture Falcon plates were coated with 200 μg/ml collagen type 1 and placed under UV light for 30 minutes for sterilization. Thereafter, one ml of PC12 cell suspension (5000 cells/well) was applied in 12 or 24 well plate, respectively. The cultures were grown in the incubator two days before exposure to investigated compound.
This experimental procedure contained two controls. The first consisted of untreated cells (negative control), representing the random effect: “noise signal”—the ability of cells to spontaneously grow neurite outgrowth which in seven days are of a length less than two-fold cell diameter. Also, negative controls consisted of cultures treated with 1% DMSO, solvent used to solubilize all compounds. The positive control consisted of cells treated with 50 ng/ml NGF, indicating maximal neurite outgrowth that can be achieved in this model. The experimental group consisted of PC12 cells treated with synthetic compounds. In each experiment, after two and seven days, six cultures were evaluated for neurotropic effect. These consecutive observations allow measurement of the progress of neurite outgrowth elongation and the percentage of cells with neurites.^31
In order to assess neurotropic effect, the neurite outgrowth length in each culture was quantified. For this purpose, each culture was placed under an inverted microscope and photographed by the attached camera. Each well was photographed at three to five representative areas. After acquiring the photos, they were analyzed by ImageJ, NIH software. The neurite outgrowth was estimated by fractal dimension (Df), a statistical parameter that describes the fractional space (area and length) filled by neurite outgrowth. Df ranged from 0 to 1.20. This method estimates the amount of picsel covered by neurites/cells compared to empty space per square field, and therefore plotting log (number of square boxes) vs. log (size in pixels) relationship generates a linear curve with Df representing the slope of the curve. Every photograph that was taken, was opened in a Photoshop software and a new layer was generated on it. Using a 5-pixel wide digital pencil tool, all the outgrowths were marked and the layer with the markers (outgrowth network) was saved in a 0-255 gray scale as described in FIG. 2. Then, the saved layer was opened by ImageJ NIH software. The software “skeletonized” the layer, measured the length and complexity of every outgrowth in a fractal box count and calculated the fractional dimension parameter (Df).^32
Each experiment was performed in duplicates and repeated three to four times (n=6-8). By using SPSS software, one way ANOVA was performed for the fractional dimension of each compound, in order to evaluate the neurotropic effect. In case of significance, Bonferroni post-hoc analysis was performed. The results were considered significant when p<0.05.

PC12 cells [2] = assay: Cytotoxicity (cell morphology, LDH release); format: cell-based; conditions: 10 μM
[3] = target: T1, N-methyl-D-aspartate (NMDA) Glutamate Receptor 1A/2B (NMDAR (1A/2B)) (Homo sapiens, UniProt Q05586+Q13224); assay: SAFETYscan NMDAR (1A/2B) Ion channel; format: cell-based; conditions: Blocker mode; reference compound; read-out: RC50 (the source's name)
T1 construct: DiscoverX (SAFETYscan contract panel)

[4] = target: T2, Nicotinic acetylcholine Receptor-alpha-4 beta-2 (nAChR (a4/b2)) (Homo sapiens, UniProt P17787+P43681); assay: cell-based; format: cell-based; conditions: Blocker mode; reference compound; read-out: RC50 (the source's name)
T2 construct: DiscoverX (SAFETYscan contract panel)

[5] = target: Gamma-aminobutyric acid Receptor A (GABAA); format: cell-based; conditions: Blocker mode; reference compound; read-out: RC50 (the source's name)
[6] = test system: dorsal root ganglion (DRG) sensory neurons; assay: Neurite outgrowth in dorsal root ganglion (DRG) explants; format: cell-based, mice
Protocol: To perform these experiments, about 10 dorsal root ganglia (DRGs) were excised under sterile conditions and transferred to 0.25% Type IV collagenase (Sigma-Aldrich-Merck) in Dulbecco's Modified Eagle Medium (DMEM) at 37° C. for 45 min, followed by a 20-min incubation with 0.025% trypsin in DMEM, to digest the associated connective tissue surrounding the neurons. After plating the ganglia onto collagen (50 μg/ml)/laminin mixture (5 μg/ml)-coated tissue culture wells for 24 h, DRG neurons were cultured for additional 1-7 days in fresh Neurobasal A/B27 containing either 50 ng/ml NGF (positive control), blank medium (DMSO 1%) control and HU-MCA-13. The cultures were photographed; thereafter the ganglia were immune-stained for neuronal tubulin and again photographed using a fluorescent microscope. Image analysis was performed by a researcher blinded to the experimental conditions. Neurite outgrowth distance measured in micrometers, was quantified as for PC12 cultures.

PC12 cells [7] = assay: Additive neurotropic effect between HU-MCA-13 and NGF, PC12 neurite outgrowth; format: cell-based, rat
Protocol: PC12 cells were cultured in T-200 flasks in high glucose (4.5 gr/L) DMEM medium supplemented with 7% FCS, 7% horse serum and 1% penicillin and streptomycin. Cells will be maintained at 37° C. in a humidified incubator containing 6% CO2. All experiments were carried out in a GLP clean room, according to ISO 7 requirements (10,000 particles/m^3). For neurotropic experiments, tissue culture Falcon plates were coated with 200 μg/ml collagen type 1 and placed under UV light for 30 minutes for sterilization. Thereafter, one ml of PC12 cell suspension (5000 cells/well) was applied in 12 or 24 well plate, respectively. The cultures were maintained in the incubator two days before exposure to investigated compound. Each neurotropic experiment contained two controls. The first consisted of untreated cells (negative control), representing the random effect: “noise signal”—the ability of cells to spontaneously grow neurite outgrowth which in seven days are of a length less than two-fold cell diameter. Also, negative controls consisted of cultures treated with 1% DMSO, solvent used to solubilize HU-MCA-13. The positive controls represented neuronal cultures treated with 50 ng/ml NGF, indicating maximal neurite outgrowth that can be achieved in this model. The experimental group consisted of PC12 cells treated with 10 μM HU-MCA-13. In each experiment, after two and seven days, six cultures will be evaluated for neurotropic effect. These consecutive observations allow measurement of the progress of neurite outgrowth elongation and the percentage of cells with neurites (Katzir et al. A quantitative bioassay for nerve growth factor, using PC12 clones expressing different levels of trkA receptors. J Mol Neurosci. 2002; 18(3):251-64). In order to assess neurotropic effect, the neurite outgrowth length in each culture was quantified. For this purpose, each culture was placed under an inverted microscope and photographed by the attached camera. Each well was photographed at three to five representative areas. After acquiring the photos, they were analyzed by ImageJ, NIH software. The neurite outgrowth was estimated by fractal dimension (Df), a statistical parameter that describes the fractional space (area and length) filled by neurite outgrowth. Df ranged from 0 to 1.20. This method estimated the amount of picsels covered by neurites/cells compared to empty space per square field, and therefore plotting log(number of square boxes) vs. log(size in pixels) relationship generated a linear curve with Df representing the slope of the curve. Every photograph that was taken, was opened in a Photoshop software and a new layer was generated on it. Using a 5-pixel wide digital pencil tool, all the outgrowths were marked and the layer with the markers (outgrowth network) were saved in a 0-255 gray scale. Thereafter, the saved layer was opened by ImageJ NIH software.
Using an established PC12 neurotropic in vitro assay, the regenerative enhancing effect of HU-MCA-13 when applied concomitantly, together with NGF, a known neurotrophin was investigated. […] NGF alone, as positive control, at the conventional dose of 50 ng/ml enhanced neurite outgrowth to a Df value of 0.54 at 2 days and 0.4 at 7 days of treatment (FIG. 5). To verify a possible additive effect, the cultures with a mixture of low dose NGF (1 ng/ml generating 10% neurite outgrowth=Df of 0.05) and 1 μM HU-MCA-13 generating about 10-15% neurite outgrowth=Df of 0.04) were tested and found after 2 days a Df of 0.85 and after 7 days a Df of 0.38. NGF is released by hematopoietic cells during polyneuropathy inflammatory process, this finding further strength the possibility of a potential enhancement regenerative effect of this drug upon in vivo therapy.

[8] = NGF 50 ng/ml, DRG explants, 5 days

T2 sequence (P43681 29-627 limits assumed): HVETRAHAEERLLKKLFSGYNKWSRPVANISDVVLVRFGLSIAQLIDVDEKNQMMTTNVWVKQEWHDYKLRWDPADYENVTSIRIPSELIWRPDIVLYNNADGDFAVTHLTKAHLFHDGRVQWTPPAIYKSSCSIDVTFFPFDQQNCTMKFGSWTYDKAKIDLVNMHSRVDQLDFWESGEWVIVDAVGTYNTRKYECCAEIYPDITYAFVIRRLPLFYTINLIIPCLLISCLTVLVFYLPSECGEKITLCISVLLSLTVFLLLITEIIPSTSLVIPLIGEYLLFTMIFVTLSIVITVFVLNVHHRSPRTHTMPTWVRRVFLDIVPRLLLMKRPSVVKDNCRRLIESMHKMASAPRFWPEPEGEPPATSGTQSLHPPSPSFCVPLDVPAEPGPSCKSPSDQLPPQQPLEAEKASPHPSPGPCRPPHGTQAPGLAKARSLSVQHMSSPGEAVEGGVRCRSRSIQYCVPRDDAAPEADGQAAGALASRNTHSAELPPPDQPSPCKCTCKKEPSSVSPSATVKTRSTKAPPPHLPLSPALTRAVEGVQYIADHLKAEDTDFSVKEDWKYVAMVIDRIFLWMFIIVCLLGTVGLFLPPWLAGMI
T2 sequence (P17787 26-502): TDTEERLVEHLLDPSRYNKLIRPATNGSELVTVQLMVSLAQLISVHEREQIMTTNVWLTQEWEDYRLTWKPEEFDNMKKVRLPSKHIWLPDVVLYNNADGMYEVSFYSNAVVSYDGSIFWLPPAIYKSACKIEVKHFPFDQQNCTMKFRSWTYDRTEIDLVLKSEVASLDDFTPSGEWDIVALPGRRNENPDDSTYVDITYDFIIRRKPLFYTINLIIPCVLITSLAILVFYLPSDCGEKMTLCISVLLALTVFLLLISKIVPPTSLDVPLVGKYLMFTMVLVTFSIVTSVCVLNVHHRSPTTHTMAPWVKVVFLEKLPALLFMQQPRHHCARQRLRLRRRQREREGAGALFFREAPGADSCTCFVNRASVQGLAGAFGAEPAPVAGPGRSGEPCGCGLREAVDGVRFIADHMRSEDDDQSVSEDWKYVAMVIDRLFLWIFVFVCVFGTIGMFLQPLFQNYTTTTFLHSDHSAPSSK
T1 sequence (Q13224 27-1484, other chains not shown): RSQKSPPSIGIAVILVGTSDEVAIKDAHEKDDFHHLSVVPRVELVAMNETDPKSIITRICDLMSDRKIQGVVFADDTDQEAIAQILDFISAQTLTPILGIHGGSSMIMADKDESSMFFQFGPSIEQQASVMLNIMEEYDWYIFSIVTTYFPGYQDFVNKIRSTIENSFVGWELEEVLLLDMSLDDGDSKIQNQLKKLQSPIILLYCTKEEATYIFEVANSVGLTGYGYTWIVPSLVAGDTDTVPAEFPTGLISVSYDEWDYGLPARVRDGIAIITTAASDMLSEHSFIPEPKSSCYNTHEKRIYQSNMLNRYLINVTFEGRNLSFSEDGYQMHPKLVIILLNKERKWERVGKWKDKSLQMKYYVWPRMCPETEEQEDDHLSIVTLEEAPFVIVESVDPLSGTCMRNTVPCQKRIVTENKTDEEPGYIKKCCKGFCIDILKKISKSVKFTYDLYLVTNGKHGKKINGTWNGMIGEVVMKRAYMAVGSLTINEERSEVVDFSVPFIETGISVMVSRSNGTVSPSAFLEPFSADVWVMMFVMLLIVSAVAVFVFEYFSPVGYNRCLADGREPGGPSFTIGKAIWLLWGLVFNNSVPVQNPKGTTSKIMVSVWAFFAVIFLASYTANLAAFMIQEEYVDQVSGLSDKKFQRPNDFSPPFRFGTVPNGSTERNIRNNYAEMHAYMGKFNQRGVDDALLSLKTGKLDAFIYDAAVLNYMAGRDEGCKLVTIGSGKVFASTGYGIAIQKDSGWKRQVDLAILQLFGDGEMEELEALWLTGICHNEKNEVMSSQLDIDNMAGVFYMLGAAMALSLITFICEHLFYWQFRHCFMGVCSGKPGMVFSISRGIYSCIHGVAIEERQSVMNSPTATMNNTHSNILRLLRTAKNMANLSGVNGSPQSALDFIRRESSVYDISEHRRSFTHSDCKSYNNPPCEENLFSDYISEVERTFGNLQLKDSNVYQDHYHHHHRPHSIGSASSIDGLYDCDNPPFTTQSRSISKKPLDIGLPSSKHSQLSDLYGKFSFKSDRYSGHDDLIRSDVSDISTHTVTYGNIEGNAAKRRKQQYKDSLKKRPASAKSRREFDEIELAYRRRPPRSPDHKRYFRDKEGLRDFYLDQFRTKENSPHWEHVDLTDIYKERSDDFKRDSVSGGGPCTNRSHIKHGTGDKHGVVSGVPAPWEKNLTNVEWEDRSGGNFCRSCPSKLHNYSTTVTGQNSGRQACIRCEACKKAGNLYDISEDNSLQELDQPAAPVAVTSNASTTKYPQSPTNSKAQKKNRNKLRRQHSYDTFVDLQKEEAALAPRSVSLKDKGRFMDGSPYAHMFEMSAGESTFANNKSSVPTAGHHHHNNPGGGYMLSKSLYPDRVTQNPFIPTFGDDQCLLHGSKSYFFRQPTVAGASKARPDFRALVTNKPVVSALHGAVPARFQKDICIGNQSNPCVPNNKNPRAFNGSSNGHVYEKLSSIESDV

C=C(C)CC1CCCC(CC(=O)OC)C1=C (centres unmarked) [Compound 5, Methyl 2-(3-(2-methylallyl)-2-methylenecyclohexyl)acetate]
loss of activity from day two to seven (PC12 cells [1]): 50%
Neurotropic effect (mean ± SE) Seven Days Df (PC12 cells [1]): 0.20 ± 0.17
Neurotropic effect (mean ± SE) Two Days Df (PC12 cells [1]): 0.42 ± 0.01
Neurotropic effect Seven Days NGF (%) (PC12 cells [1]): 43.5%
Neurotropic effect Two Days NGF (%) (PC12 cells [1]): 91.3%
neurotropic activity (in words) (PC12 cells [1]; after seven days of treatment): significant neurotropic activity
inducing fast neurite outgrowth (in words) (PC12 cells [1]): most active

C=C1C(CC=C(C)C)CCC[C@H]1CC(=O)O (some centres unmarked) [Compound 6]
Neurotropic effect (mean ± SE) Seven Days Df (PC12 cells [1]): 0.20 ± 0.17
Neurotropic effect (mean ± SE) Two Days Df (PC12 cells [1]): 0.14 ± 0.15
Neurotropic effect Seven Days NGF (%) (PC12 cells [1]): 43.5%
Neurotropic effect Two Days NGF (%) (PC12 cells [1]): 30.4%
neurotropic activity (in words) (PC12 cells [1]; after seven days of treatment): significant neurotropic activity
inducing fast neurite outgrowth (in words) (PC12 cells [1]): most active

C=C1C(CC=C(C)C)CCCC1CC(=O)OC (centres unmarked) [Compound 7, Methyl 2-(3-(3-methylbut-2-en-1-yl)-2-methylenecyclohexyl)acetate]
Neurotropic effect (mean ± SE) Seven Days Df (PC12 cells [1]): 0.20 ± 0.17
Neurotropic effect (mean ± SE) Two Days Df (PC12 cells [1]): 0.12 ± 0.14
Neurotropic effect Seven Days NGF (%) (PC12 cells [1]): 43.5%
Neurotropic effect Two Days NGF (%) (PC12 cells [1]): 26.1%
neurotropic activity (in words) (PC12 cells [1]; after seven days of treatment): significant neurotropic activity
inducing fast neurite outgrowth (in words) (PC12 cells [1]): most active

C=C1C(C/C=C/c2ccccc2)CCC[C@H]1CC(=O)O (some centres unmarked) [Compound 8]
cytotoxicity (in words) (PC12 cells [2]): partial cytotoxic activity

C=CCC1CC(=C)C[C@@H](CC(=O)O)C1=C (some centres unmarked) [Compound 9]
Neurotropic effect (mean ± SE) Seven Days Df (PC12 cells [1]): 0.01 ± 0.01
Neurotropic effect Seven Days NGF (%) (PC12 cells [1]): 2.2%
neurotropic activity (in words) (PC12 cells [1]; PC12 cell neurotropic assay): no activity was detected

C=CCC1CC(c2ccccc2)C[C@@H](CC(=O)O)C1=C (some centres unmarked) [Compound 10]
neurotropic activity (in words) (PC12 cells [1]; PC12 cell neurotropic assay): no activity was detected

C=CCC1CC(c2ccccc2)CC(CC(=O)OC)C1=C (centres unmarked) [Compound 11, Methyl 2-(3-allyl-2-methylene-5-phenylcyclohexyl)acetate]
Neurotropic effect (mean ± SE) Seven Days Df (PC12 cells [1]): 0.01 ± 0.01
Neurotropic effect Seven Days NGF (%) (PC12 cells [1]): 2.2%
neurotropic activity (in words) (PC12 cells [1]; PC12 cell neurotropic assay): no activity was detected

C=CCC1CC(C(C)(C)C)C[C@@H](CC(=O)O)C1=C (some centres unmarked) [Compound 12]
Neurotropic effect (mean ± SE) Seven Days Df (PC12 cells [1]): 0.17 ± 0.16
Neurotropic effect Seven Days NGF (%) (PC12 cells [1]): 37.0%
neurotropic activity (in words) (PC12 cells [1]; after seven days of treatment): significant neurotropic activity

C=CCC1CN(C(=O)OCC)CC(CC(=O)OC)C1=C (centres unmarked) [Compound 15, Ethyl-3-allyl-5-(2-methoxy-2-oxoethyl)-4-methylenepiperidine-1-carboxylate]
cytotoxicity (in words) (PC12 cells [2]): partial cytotoxic activity

C=C(C)CC1CCCC(CC(=O)OC)C1=O (centres unmarked) [Compound 18, Methyl 2-(3-(2-methylallyl)-2-oxocyclohexyl)acetate]
cytotoxicity (in words) (PC12 cells [2]): partial cytotoxic activity

COC(=O)CC1CCCC(CC=C(C)C)C1=O (centres unmarked) [Compound 21, Methyl 2-(3-(3-methylbut-2-en-1-yl)-2-oxocyclohexyl)acetate]
Neurotropic effect (mean ± SE) Seven Days Df (PC12 cells [1]): 0.01 ± 0.01
Neurotropic effect Seven Days NGF (%) (PC12 cells [1]): 2.2%

C[C@]12N[C@H](Cc3ccccc31)c1ccccc12 [MK 801, reference compound]
IC50 [3]: 0.0528 µM

Dihydro-AY-erythroidine [reference compound]
IC50 [4]: 0.707 µM

Picrotoxin [reference compound]
IC50 [5]: 5.92 µM

B1: NGF: Tissue culture grade mouse β-NGF from Alomone Labs; positive control (protein, UniProt P01139 122-241, looked up)
Beta-nerve growth factor: SSTHPVFHMGEFSVCDSVSVWVGDKTTATDIKGKEVTVLAEVNINNSVFRQYFFETKCRASNPVESGCRGIDSKHWNSYCTTTHTFVKALTTDEKQAAWRFIRIDTACVCVLSRKATRRG
modifications: Beta-nerve growth factor
notes: Tissue culture grade mouse β-NGF from Alomone Labs; positive control
increase in neurite outgrowth ([6]; NGF 50 ng/ml vs blank control medium): 3-4 fold
neurite outgrowth length [6, 8]: 700 micrometer
ratio between the area covered by neurites and that covered by the DRG ganglia [6, 8]: 9
neurite outgrowth Df (PC12 cells [7]; NGF alone 50 ng/ml, 2 days): 0.54
neurite outgrowth Df (PC12 cells [7]; NGF alone 50 ng/ml, 7 days): 0.4
neurite outgrowth (PC12 cells [7]; low dose NGF 1 ng/ml): 10%
neurite outgrowth Df (PC12 cells [7]; low dose NGF 1 ng/ml): 0.05
